{"source": "patent US20060110790A1", "about": "“Expression system for large functional proteins” (priority 2002, published 2006)", "target": "T1, N-half co-expressed with the K1978M C-half mutant of ABCR (Homo sapiens, UniProt P78363, K1978M)", "T1 construct": "The cDNAs coding for the N-half (amino acids 1-1325) and C-half (amino acids 1326-2273) of ABCR; made in house", "T1 sequence (P78363 1-1325)": "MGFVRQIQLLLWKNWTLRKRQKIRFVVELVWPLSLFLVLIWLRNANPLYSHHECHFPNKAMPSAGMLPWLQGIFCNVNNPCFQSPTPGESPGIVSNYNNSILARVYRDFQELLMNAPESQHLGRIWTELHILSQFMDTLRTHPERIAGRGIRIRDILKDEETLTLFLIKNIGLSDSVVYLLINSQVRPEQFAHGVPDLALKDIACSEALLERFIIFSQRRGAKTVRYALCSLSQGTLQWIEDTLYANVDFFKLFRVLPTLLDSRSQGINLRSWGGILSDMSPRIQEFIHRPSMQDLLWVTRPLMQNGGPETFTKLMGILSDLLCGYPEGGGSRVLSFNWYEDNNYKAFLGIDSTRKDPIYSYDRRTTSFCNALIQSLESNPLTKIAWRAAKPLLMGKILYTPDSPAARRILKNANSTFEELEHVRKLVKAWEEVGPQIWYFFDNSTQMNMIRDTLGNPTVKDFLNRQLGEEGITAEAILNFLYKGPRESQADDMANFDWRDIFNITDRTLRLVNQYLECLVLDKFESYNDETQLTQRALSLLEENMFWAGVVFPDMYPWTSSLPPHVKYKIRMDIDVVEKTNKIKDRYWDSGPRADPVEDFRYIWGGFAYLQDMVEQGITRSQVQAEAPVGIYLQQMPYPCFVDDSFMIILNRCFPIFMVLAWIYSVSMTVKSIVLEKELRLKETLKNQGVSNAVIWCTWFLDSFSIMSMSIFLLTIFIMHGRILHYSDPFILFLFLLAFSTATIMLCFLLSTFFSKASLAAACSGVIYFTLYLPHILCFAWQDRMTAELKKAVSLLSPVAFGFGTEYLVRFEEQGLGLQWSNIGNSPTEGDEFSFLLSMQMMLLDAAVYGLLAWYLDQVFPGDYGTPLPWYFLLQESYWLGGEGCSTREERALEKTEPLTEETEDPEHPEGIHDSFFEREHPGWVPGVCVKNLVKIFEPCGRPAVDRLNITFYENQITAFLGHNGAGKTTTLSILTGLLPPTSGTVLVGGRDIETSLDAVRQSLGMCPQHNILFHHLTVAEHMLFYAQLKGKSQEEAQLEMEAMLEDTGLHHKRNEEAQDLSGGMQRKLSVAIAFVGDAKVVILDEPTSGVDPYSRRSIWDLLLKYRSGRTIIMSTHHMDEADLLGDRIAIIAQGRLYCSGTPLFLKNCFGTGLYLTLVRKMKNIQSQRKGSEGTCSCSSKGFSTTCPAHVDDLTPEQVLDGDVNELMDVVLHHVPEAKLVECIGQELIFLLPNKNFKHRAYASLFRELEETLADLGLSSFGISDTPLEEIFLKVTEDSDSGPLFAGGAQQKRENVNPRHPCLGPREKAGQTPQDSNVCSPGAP", "T1 sequence (P78363 1326-2273 K1978M)": "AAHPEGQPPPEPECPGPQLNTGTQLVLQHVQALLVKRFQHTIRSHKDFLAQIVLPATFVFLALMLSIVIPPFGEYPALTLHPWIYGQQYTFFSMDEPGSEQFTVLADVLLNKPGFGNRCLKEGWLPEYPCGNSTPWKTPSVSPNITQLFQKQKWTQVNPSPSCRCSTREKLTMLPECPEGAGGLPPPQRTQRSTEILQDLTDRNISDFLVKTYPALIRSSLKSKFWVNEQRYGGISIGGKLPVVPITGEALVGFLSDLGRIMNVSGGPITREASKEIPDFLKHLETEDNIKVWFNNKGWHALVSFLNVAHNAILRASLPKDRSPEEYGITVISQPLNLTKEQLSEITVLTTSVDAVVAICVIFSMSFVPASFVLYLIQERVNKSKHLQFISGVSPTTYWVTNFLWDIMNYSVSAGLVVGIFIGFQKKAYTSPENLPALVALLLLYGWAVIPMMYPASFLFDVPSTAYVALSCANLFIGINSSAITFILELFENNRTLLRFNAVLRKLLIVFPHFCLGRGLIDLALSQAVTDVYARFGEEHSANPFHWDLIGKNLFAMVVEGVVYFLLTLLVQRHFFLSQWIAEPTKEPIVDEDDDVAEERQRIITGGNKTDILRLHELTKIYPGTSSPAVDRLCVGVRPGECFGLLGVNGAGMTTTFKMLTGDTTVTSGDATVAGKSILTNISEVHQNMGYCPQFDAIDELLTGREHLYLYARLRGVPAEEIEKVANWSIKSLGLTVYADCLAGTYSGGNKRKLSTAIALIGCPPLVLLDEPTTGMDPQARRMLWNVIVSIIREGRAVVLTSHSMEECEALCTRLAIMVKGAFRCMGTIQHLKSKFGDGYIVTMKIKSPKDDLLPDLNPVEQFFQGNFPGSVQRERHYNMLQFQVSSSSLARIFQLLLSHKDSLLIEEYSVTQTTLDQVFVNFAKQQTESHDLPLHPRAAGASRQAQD", "experiment": "ATPase activity of Walker A lysine-to-methionine mutants", "format": "biochemical", "conditions": "50 μM all-trans retinal", "method": "FIG. 4. Lysine to methionine Walker A mutations in ABCR abolish ATP hydrolysis but not ATP binding. A. ATPase activity was measured in the absence (white bars) or presence of 50 μM all-trans retinal (grey bars). WT, wild-type; K969M in NBD1; K1978M in NBD2; MM, K969M/K1978M double mutant; NCM, N-half co-expressed with C-half containing a K1978M mutation. B. ATP photoaffinity labeling was carried out by irradiating membranes from COS-1 cells expressing wild-type (WT), K969M, K1978M, or K969M/K1978M double mutant (MM) with 3 μM 8-azido-[α-^32P]ATp. The labeled protein was isolated with Rim3F4-Sepharose and separated on SDS gels. Left panel: gel stained with Coomassie blue. Right panel: corresponding ^32P labeling obtained with a phosphorimager. All mutant proteins were labeled with 8-azido-[α-^32P]ATP, but the double mutant bound less nucleotide.\nATPase activity was measured as described previously (Ahn, J., Wong, J. T., and Molday, R. S. (2000) J Biol Chem 275(27), 20399-405) using 50 μM [α^32P]ATP and thin layer chromatography. The all-trans retinal concentration was determined spectrophotometrically (λ383 nm=42.88 mM^−1 cm^−1). Protein concentration was estimated from the eluate before reconstitution by laser densitometry of Coomassie blue stained gels using bovine serum albumin as a standard. […]", "data": [{"smiles": "CC1=C(/C=C/C(C)=C/C=C/C(C)=C/C=O)C(C)(C)CCC1", "note": "[all-trans retinal]", "values": [{"measurement": "retinal-stimulated ATPase activity", "result": "abolished"}]}]}
